≈ marks a conversion by molar mass, not a printed value.
What was measured:
[1] = system: Mycobacterium tuberculosis; experiment: Antimycobacterial activity against Mycobacterium tuberculosis H37Rv ATCC 27294 after 28 days by agar dilution method; assay type: functional; details: H37Rv ATCC 27294, 672 h
[2] = Cytotoxicity against HEK293T cells assessed as cell growth inhibition at 50 ug/mL after 72 hrs by MTT assay; assay type: cell-based, HEK-293T; details: human, read-out: GI

SMILES	MIC50 [1]	MIC ([1]; read-out: MIC)	MIC ([1]; read-out: MIC100)	inhibition at 72 h, 50 ug/mL [2]
COc1ccc(CCNC(=O)c2c(C)nc3ccccn23)cc1	2.63 µM (≈ 0.814 µg/mL)	–	–	–
Cc1nc2ccccn2c1C(=O)NCc1ccccc1	1.86 µM (≈ 0.493 µg/mL)	–	–	–
O=C(NCc1ccc(N2CCSCC2)cc1)c1c(-c2ccc3sc4ccccc4c3c2)nc2ccccn12	–	25 mg/L	–	–
O=C(NCc1ccc(N2CCN(Cc3ccccc3)CC2)cc1)c1c(-c2ccc3sc4ccccc4c3c2)nc2ccccn12	–	25 mg/L	–	–
O=C(NCc1ccc(N2CCC(Cc3ccccc3)CC2)cc1)c1c(-c2ccc3sc4ccccc4c3c2)nc2ccccn12	–	0.78 mg/L	1.3 µM	34.8%
O=C(NCc1ccc(Oc2ccc(F)cc2)cc1)c1c(-c2ccc3sc4ccccc4c3c2)nc2ccccn12	–	25 mg/L	–	–
O=C(NCc1ccc(F)cc1)c1c(-c2ccc3sc4ccccc4c3c2)nc2ccccn12	–	3.13 mg/L	–	25.8%
O=C(NCc1ccc(C(F)(F)F)cc1)c1c(-c2ccc3sc4ccccc4c3c2)nc2ccccn12	–	12.5 mg/L	–	–
O=C(NCc1ccccc1)c1c(-c2ccc3sc4ccccc4c3c2)nc2ccccn12	–	3.13 mg/L	7.21 µM	34.6%
O=C(NCc1ccc(N2CCN(c3ccccc3F)CC2)cc1)c1c(-c2ccc3sc4ccccc4c3c2)nc2ccccn12	–	25 mg/L	–	–
O=C(NCc1ccc(Cl)cc1)c1c(-c2ccc3sc4ccccc4c3c2)nc2ccccn12	–	25 mg/L	–	–
CC(C)(C)c1ccc(CNC(=O)c2c(-c3ccc4sc5ccccc5c4c3)nc3ccccn23)cc1	–	1.56 mg/L	3.22 µM	18.8%
CCc1nc2ccccn2c1C(=O)NCc1ccc(Oc2ccc(OC(F)(F)F)cc2)cc1	0.013 µM (≈ 0.00592 µg/mL)	–	–	–
Cc1ccc(CNC(=O)c2c(-c3ccc4sc5ccccc5c4c3)nc3ccccn23)cc1	–	12.5 mg/L	–	–
CC(C)(C)c1ccc(Oc2ccc(CNC(=O)c3c(-c4ccc5sc6ccccc6c5c4)nc4ccccn34)cc2)cc1	–	25 mg/L	–	–
O=C(NCc1ccc(Oc2ccc(Cl)cc2)cc1)c1c(-c2ccc3sc4ccccc4c3c2)nc2ccccn12	–	25 mg/L	–	–
O=C(NCc1ccc(N2CCN(c3ccc(Cl)cc3)CC2)cc1)c1c(-c2ccc3sc4ccccc4c3c2)nc2ccccn12	–	1.56 mg/L	2.5 µM	24.4%
O=C(NCc1ccc(Oc2ccccc2)cc1)c1c(-c2ccc3sc4ccccc4c3c2)nc2ccccn12	–	6.25 mg/L	–	38.4%
O=C(NCc1ccc(N2CCOCC2)cc1)c1c(-c2ccc3sc4ccccc4c3c2)nc2ccccn12	–	25 mg/L	–	–
O=C(NCc1ccc(OC(F)(F)F)cc1)c1c(-c2ccc3sc4ccccc4c3c2)nc2ccccn12	–	25 mg/L	–	–
COc1ccc(CNC(=O)c2c(-c3ccc4sc5ccccc5c4c3)nc3ccccn23)cc1	–	6.25 mg/L	–	37%
O=C(NCc1ccc(Oc2ccc(OC(F)(F)F)cc2)cc1)c1c(-c2ccc3sc4ccccc4c3c2)nc2ccccn12	–	12.5 mg/L	–	–
CC[C@@H](CO)NCCN[C@@H](CC)CO [ETHAMBUTOL]	–	3.13 mg/L	–	–
NNC(=O)c1ccncc1 [ISONIAZID]	–	0.1 mg/L	–	–
NC(=O)c1cnccn1 [PYRAZINAMIDE]	–	50 mg/L	–	–

Reference: ChEMBL document CHEMBL3808383, “Synthesis and antitubercular evaluation of novel dibenzo[b,d]thiophene tethered imidazo[1,2-a]pyridine-3-carboxamides” (Bioorg Med Chem Lett, 2016)
